# From article PMC3959874 (European journal of dermatology : EJD, 2013)
# Read-outs that look alike come from different tables or passages of the source.
# Key:
# [1] = target: CYP1A2 (Homo sapiens, UniProt P05177); test: Cytochrome P450 enzyme assay; type: in vitro ADME; details: human
# [2] = target: CYP2C19 (Homo sapiens, UniProt P33261); test: Cytochrome P450 enzyme assay; type: in vitro ADME; details: human
# [3] = target: CYP2C9 (Homo sapiens, UniProt P11712); test: Cytochrome P450 enzyme assay; type: in vitro ADME; details: human
# [4] = target: CYP2D6 (Homo sapiens, UniProt P10635); test: Cytochrome P450 enzyme assay; type: in vitro ADME; details: human
# [5] = target: CYP3A4 (Homo sapiens, UniProt P08684); test: Cytochrome P450 enzyme assay; type: in vitro ADME; details: human
# [6] = target: Adenosine A1 (Homo sapiens, UniProt P30542); test: Radioligand binding assay; details: read-out: Percent inhibition of specific radioligand binding
# [7] = target: Adrenergic β1 (Homo sapiens, UniProt P08588); test: Radioligand binding assay; details: read-out: Percent inhibition of specific radioligand binding
# [8] = target: Androgen (Testosterone) AR (Rattus norvegicus, UniProt P15207); test: Radioligand binding assay; details: read-out: Percent inhibition of specific radioligand binding
# [9] = target: Bradykinin B1 (Homo sapiens, UniProt P46663); test: Radioligand binding assay; details: read-out: Percent inhibition of specific radioligand binding
# [10] = target: Bradykinin B2 (Homo sapiens, UniProt P30411); test: Radioligand binding assay; details: read-out: Percent inhibition of specific radioligand binding
# [11] = system: Calcium Channel L-Type, Benzothiazepine; test: Radioligand binding assay; design: species or system rat; details: 10 μM; 4 °C, 180 min
# [12] = system: Calcium Channel L-Type, Dihydropyridine; test: Radioligand binding assay; design: species or system rat; details: 10 μM; 25 °C, 90 min
# [13] = target: Calcium Channel N-Type (Rattus norvegicus, UniProt Q02294); test: Radioligand binding assay; details: read-out: Percent inhibition of specific radioligand binding
# [14] = target: Cannabinoid CB1 (Homo sapiens, UniProt P21554); test: Radioligand binding assay; details: read-out: Percent inhibition of specific radioligand binding
# [15] = target: Dopamine D1 (Homo sapiens, UniProt P21728); test: Radioligand binding assay; details: read-out: Percent inhibition of specific radioligand binding
# [16] = target: Dopamine D4.2 (Homo sapiens, UniProt P21917, DEL265-296); test: Radioligand binding assay; details: read-out: Percent inhibition of specific radioligand binding
# [17] = target: Endothelin ETB (Homo sapiens, UniProt P24530); test: Radioligand binding assay; details: read-out: Percent inhibition of specific radioligand binding
# [18] = target: Epidermal Growth Factor (EG F) (Homo sapiens, UniProt P00533); test: Radioligand binding assay; details: read-out: Percent inhibition of specific radioligand binding
# [19] = target: Estrogen ERa (Homo sapiens, UniProt P03372); test: Radioligand binding assay; details: read-out: Percent inhibition of specific radioligand binding
# [20] = system: GABAA, Flunitrazepam, Cent ral; test: Radioligand binding assay; design: species or system rat; details: 10 μM; 25 °C, 120 min
# [21] = system: GABAA, Muscimol, Central; test: Radioligand binding assay; design: species or system rat; details: 10 μM; 4 °C, 10 min
# [22] = target: Glucocorticoid (Homo sapiens, UniProt P04150); test: Radioligand binding assay; details: read-out: Percent inhibition of specific radioligand binding
# [23] = system: Glutamate, Kainate; test: Radioligand binding assay; design: species or system rat; details: 10 μM; 4 °C, 60 min
# [24] = system: Glutamate, NMDA, Agonism; test: Radioligand binding assay; design: species or system rat; details: 10 μM; 4 °C, 20 min
# [25] = target: Glutamate, NMDA, Glycine (Rattus norvegicus, UniProt P35439); test: Radioligand binding assay; details: read-out: Percent inhibition of specific radioligand binding
# [26] = system: Glutamate, NMDA, Phencyclidine; test: Radioligand binding assay; design: species or system rat; details: 10 μM; 25 °C, 45 min
# [27] = target: Histamine H3 (Homo sapiens, UniProt Q9Y5N1); test: Radioligand binding assay; details: read-out: Percent inhibition of specific radioligand binding
# [28] = system: Imidazoline I2, Central; test: Radioligand binding assay; design: species or system rat; details: 10 μM; 25 °C, 30 min
# [29] = target: Interleukin IL-1 (Mus musculus, UniProt P13504); test: Radioligand binding assay; details: read-out: Percent inhibition of specific radioligand binding
# [30] = target: Leukotriene, Cysteinyl CysLT 1 (Homo sapiens, UniProt Q9Y271); test: Radioligand binding assay; details: read-out: Percent inhibition of specific radioligand binding
# [31] = target: Muscarinic M2 (Homo sapiens, UniProt P08172); test: Radioligand binding assay; details: read-out: Percent inhibition of specific radioligand binding
# [32] = target: Neuropeptide Y Y2 (Homo sapiens, UniProt P49146); test: Radioligand binding assay; details: read-out: Percent inhibition of specific radioligand binding
# [33] = system: Nicotinic Acetylcholine; test: Radioligand binding assay; design: species or system human; details: 10 μM; 25 °C, 60 min
# [34] = target: Nicotinic Acetylcholine a1, Bungarotoxin (Homo sapiens, UniProt P02708+P07510+Q07001); test: Radioligand binding assay; details: read-out: Percent inhibition of specific radioligand binding
# [35] = target: Opiate 51 (OP1, DOP) (Homo sapiens, UniProt P41143); test: Radioligand binding assay; details: read-out: Percent inhibition of specific radioligand binding
# [36] = system: Phorbol Ester; test: Radioligand binding assay; design: species or system mouse; details: 10 μM; 25 °C, 60 min
# [37] = target: Platelet Activating Factor (PA F) (Homo sapiens, UniProt P25105); test: Radioligand binding assay; details: read-out: Percent inhibition of specific radioligand binding
# [38] = system: Potassium Channel [KATP]; test: Radioligand binding assay; design: species or system human; details: 10 μM; 25 °C, 120 min
# [39] = target: hERG potassium channel (Homo sapiens, UniProt Q12809); test: Radioligand binding assay; details: human
# [40] = target: Prostanoid EP4 (Homo sapiens, UniProt P35408); test: Radioligand binding assay; details: read-out: Percent inhibition of specific radioligand binding
# [41] = system: Purinergic P2x; test: Radioligand binding assay; design: species or system rabbit; details: 10 μM; 25 °C, 30 min
# [42] = system: Purinergic P2,; test: Radioligand binding assay; design: species or system rat; details: 10 μM; 25 °C, 60 min
# [43] = target: Serotonin (5-Hydroxytryptam ine) 5-HT1A (Homo sapiens, UniProt P08908); test: Radioligand binding assay; details: read-out: Percent inhibition of specific radioligand binding
# [44] = target: Serotonin (5-Hydroxytryptam ine) 5-HT2B (Homo sapiens, UniProt P41595); test: Radioligand binding assay; details: read-out: Percent inhibition of specific radioligand binding
# [45] = system: Thyroid Hormone; test: Radioligand binding assay; design: species or system rat; details: 10 μM; 4 °C, 18 hrs
# [46] = target: Transporter, GABA (Rattus norvegicus, UniProt P23978); test: Radioligand binding assay; details: read-out: Percent inhibition of specific radioligand binding
# [47] = target: Transporter, Norepinephrine (NET) (Homo sapiens, UniProt P23975); test: Radioligand binding assay; details: read-out: Percent inhibition of specific radioligand binding
# [48] = type: in vivo, mice; details: for Body weight change after a single intravenous injection of the MTD: 150 mg/kg TMX-202 or 15 mg/kg IMQ i.v. (figure 4)
# [49] = system: human PBMC; details: up to 1 μM; ref [24]; cited from earlier work
# [50] = Serum drug concentration after topical skin application; details: C57BL/6, mouse, serum
# Chain of Bradykinin B2 (P30411 whole entry): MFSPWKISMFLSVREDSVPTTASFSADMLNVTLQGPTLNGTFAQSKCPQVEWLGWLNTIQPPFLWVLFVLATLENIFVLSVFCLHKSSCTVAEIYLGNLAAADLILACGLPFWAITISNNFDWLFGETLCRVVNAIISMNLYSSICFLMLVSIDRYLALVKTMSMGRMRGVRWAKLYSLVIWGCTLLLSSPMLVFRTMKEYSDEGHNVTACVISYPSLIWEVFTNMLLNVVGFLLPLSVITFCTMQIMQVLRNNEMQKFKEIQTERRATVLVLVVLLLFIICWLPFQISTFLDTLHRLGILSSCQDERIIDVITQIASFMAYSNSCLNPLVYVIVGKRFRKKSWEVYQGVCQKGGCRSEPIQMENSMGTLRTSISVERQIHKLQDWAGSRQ
# Chain of Bradykinin B1 (P46663 whole entry): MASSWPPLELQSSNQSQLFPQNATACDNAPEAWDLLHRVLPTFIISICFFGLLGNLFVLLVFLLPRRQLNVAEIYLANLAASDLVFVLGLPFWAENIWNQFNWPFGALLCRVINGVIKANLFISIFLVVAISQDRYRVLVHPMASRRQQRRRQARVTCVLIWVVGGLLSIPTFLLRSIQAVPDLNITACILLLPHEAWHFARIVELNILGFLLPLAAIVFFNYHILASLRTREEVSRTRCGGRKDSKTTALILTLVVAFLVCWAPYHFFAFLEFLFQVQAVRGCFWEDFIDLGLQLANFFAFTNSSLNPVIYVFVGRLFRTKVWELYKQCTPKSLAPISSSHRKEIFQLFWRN
# Chain of Neuropeptide Y Y2 (P49146 whole entry): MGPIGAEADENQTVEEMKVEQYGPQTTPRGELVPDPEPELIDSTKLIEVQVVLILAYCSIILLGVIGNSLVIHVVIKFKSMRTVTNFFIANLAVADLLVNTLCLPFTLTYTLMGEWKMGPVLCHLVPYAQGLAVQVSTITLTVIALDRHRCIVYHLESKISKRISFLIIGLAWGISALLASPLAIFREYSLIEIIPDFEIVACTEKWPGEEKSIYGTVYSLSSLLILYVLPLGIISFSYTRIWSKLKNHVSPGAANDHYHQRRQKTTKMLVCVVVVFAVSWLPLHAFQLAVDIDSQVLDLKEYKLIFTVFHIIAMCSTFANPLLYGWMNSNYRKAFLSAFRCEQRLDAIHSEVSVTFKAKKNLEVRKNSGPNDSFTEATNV
# Chain of Prostanoid EP4 (P35408 whole entry): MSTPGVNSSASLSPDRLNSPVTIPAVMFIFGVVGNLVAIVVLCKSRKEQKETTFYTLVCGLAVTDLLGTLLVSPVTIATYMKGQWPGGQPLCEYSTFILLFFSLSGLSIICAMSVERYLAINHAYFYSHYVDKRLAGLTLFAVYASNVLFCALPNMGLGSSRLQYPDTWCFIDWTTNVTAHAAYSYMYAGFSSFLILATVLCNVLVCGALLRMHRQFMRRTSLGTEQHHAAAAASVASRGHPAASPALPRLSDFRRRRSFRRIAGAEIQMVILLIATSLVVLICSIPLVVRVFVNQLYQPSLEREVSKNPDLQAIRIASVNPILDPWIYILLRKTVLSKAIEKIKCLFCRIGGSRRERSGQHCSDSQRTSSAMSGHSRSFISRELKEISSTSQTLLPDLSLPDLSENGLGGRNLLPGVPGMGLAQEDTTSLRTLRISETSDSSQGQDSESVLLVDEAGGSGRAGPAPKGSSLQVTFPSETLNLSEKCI
# Chain of Nicotinic Acetylcholine a1, Bungarotoxin (P02708 21-457): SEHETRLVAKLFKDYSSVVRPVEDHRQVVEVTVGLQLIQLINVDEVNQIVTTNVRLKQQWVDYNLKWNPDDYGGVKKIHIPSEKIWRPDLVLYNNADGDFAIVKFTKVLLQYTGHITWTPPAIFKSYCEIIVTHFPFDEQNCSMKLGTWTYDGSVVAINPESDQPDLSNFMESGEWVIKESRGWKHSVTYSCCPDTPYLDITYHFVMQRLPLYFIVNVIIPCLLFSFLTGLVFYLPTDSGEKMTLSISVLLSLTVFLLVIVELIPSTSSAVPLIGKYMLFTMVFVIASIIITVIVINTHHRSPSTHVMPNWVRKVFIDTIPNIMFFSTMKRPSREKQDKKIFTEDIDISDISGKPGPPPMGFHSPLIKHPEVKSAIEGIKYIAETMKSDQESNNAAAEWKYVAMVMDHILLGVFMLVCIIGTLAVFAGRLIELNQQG
# Chain of Nicotinic Acetylcholine a1, Bungarotoxin (P07510 23-517): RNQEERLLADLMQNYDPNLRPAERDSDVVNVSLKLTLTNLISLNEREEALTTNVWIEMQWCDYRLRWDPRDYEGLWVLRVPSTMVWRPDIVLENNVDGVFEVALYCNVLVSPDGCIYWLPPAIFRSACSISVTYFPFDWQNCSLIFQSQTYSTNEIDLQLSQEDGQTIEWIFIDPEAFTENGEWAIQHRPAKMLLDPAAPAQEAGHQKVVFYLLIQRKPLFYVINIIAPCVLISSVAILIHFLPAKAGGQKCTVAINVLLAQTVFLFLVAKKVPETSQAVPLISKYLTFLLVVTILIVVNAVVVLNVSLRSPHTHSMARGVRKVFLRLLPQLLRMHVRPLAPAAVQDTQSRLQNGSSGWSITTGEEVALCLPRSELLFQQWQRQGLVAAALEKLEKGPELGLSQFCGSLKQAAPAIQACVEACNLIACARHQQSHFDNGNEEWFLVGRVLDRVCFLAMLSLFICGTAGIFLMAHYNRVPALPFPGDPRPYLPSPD
# Chain of Nicotinic Acetylcholine a1, Bungarotoxin (P11230 24-501, further chain): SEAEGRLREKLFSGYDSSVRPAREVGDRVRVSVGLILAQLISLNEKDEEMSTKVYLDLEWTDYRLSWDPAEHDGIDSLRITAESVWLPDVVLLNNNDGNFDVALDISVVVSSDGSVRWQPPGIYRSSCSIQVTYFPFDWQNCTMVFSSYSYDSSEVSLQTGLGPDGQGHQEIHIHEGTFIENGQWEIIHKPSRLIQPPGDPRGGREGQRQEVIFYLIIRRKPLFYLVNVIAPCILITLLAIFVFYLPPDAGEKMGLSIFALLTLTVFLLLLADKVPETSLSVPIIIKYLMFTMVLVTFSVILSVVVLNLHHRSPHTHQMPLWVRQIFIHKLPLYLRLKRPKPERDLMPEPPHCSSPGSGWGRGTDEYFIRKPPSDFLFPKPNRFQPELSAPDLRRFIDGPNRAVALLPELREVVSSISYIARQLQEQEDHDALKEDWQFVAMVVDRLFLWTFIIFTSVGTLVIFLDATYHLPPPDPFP
# Chain of Nicotinic Acetylcholine a1, Bungarotoxin (Q07001 22-517): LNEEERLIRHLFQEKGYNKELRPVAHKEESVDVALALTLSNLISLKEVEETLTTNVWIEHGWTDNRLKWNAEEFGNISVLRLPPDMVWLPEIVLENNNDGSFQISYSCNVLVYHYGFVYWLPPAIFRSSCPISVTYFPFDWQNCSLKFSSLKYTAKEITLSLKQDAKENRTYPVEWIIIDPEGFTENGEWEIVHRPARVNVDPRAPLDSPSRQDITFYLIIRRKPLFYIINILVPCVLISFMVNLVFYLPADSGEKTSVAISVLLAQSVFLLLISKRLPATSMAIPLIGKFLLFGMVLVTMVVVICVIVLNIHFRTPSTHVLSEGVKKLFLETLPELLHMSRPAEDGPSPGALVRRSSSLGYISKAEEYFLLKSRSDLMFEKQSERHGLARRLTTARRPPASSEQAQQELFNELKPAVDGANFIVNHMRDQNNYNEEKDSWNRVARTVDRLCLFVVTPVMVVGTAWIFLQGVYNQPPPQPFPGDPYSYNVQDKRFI
# Chain of Platelet Activating Factor (PA F) (P25105 whole entry): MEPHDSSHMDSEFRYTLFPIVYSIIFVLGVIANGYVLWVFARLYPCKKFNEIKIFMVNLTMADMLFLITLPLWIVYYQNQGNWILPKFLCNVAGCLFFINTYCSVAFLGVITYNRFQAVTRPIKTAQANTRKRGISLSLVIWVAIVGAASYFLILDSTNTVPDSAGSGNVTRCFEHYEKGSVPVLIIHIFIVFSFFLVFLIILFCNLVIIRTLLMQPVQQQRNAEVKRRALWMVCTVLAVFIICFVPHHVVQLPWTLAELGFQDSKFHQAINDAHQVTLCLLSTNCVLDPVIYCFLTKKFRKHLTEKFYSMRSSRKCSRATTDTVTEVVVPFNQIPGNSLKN
# Chain of CYP3A4 (P08684 whole entry): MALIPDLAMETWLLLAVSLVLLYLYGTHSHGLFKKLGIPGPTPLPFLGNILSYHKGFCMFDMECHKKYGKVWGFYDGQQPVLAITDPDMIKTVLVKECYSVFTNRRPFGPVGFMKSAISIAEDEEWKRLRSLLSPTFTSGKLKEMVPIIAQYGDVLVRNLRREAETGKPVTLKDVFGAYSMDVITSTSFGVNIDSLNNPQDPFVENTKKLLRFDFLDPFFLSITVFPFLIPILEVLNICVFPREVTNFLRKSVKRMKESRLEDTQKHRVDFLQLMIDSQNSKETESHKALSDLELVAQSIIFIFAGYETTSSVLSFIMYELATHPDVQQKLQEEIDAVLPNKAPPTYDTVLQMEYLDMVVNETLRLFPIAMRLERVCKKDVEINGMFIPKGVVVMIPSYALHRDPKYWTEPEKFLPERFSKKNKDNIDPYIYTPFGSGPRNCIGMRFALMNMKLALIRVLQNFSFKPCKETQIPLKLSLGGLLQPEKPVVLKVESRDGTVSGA
# Chain of Cannabinoid CB1 (P21554 whole entry): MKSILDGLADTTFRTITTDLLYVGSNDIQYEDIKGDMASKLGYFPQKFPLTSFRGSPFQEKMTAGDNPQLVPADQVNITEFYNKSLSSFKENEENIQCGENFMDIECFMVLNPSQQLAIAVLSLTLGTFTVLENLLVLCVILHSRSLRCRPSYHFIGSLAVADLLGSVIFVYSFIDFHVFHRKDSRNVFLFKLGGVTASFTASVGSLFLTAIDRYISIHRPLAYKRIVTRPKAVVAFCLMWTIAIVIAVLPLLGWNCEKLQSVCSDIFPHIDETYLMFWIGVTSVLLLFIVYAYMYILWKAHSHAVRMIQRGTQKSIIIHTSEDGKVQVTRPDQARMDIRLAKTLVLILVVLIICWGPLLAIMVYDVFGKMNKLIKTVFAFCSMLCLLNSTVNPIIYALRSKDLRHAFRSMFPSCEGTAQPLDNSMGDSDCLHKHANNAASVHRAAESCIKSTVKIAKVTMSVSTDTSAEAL
structure (smiles),measurement,setting,value
"CC(C)Cn1cnc2c(N)nc3ccccc3c21 [IMQ, imiquimod, reference compound]","inhibition at 30 min, 10 µM",[1],66%
same,"inhibition at 45 min, 10 µM",[2],10%
same,"inhibition at 45 min, 10 µM",[3],3%
same,"inhibition at 45 min, 10 µM",[4],29%
same,"inhibition at 30 min, 10 µM",[5],1%
same,inhibition at 10 µM,[6],50%
same,inhibition at 10 µM,[7],19%
same,inhibition at 10 µM,[8],7%
same,inhibition at 10 µM,[9],4%
same,inhibition at 10 µM,[10],-1%
same,Percent inhibition of specific radioligand binding,[11],4%
same,Percent inhibition of specific radioligand binding,[12],−14%
same,inhibition at 10 µM,[13],2%
same,inhibition at 10 µM,[14],-4%
same,inhibition at 10 µM,[15],66%
same,inhibition at 10 µM,[16],2%
same,inhibition at 10 µM,[17],0%
same,inhibition at 10 µM,[18],-1%
same,inhibition at 10 µM,[19],0%
same,Percent inhibition of specific radioligand binding,[20],37%
same,Percent inhibition of specific radioligand binding,[21],19%
same,inhibition at 10 µM,[22],-2%
same,Percent inhibition of specific radioligand binding,[23],−8%
same,Percent inhibition of specific radioligand binding,[24],2%
same,inhibition at 10 µM,[25],-6%
same,Percent inhibition of specific radioligand binding,[26],4%
same,inhibition at 10 µM,[27],4%
same,Percent inhibition of specific radioligand binding,[28],57%
same,inhibition at 10 µM,[29],5%
same,inhibition at 10 µM,[30],10%
same,inhibition at 10 µM,[31],3%
same,inhibition at 10 µM,[32],6%
same,Percent inhibition of specific radioligand binding,[33],3%
same,inhibition at 10 µM,[34],7%
same,inhibition at 10 µM,[35],5%
same,Percent inhibition of specific radioligand binding,[36],21%
same,inhibition at 10 µM,[37],2%
same,Percent inhibition of specific radioligand binding,[38],−5%
same,"inhibition at 60 min, 10 µM",[39],45%
same,inhibition at 10 µM,[40],6%
same,Percent inhibition of specific radioligand binding,[41],−7%
same,Percent inhibition of specific radioligand binding,[42],10%
same,inhibition at 10 µM,[43],19%
same,inhibition at 10 µM,[44],45%
same,Percent inhibition of specific radioligand binding,[45],−5%
same,inhibition at 10 µM,[46],2%
same,inhibition at 10 µM,[47],30%
same,MTD at 8 days,"[48]; C57BL/6, mouse, in vivo, iv",15 mg/kg
same,MTD (molar),"[48]; C57BL/6 mice, intravenous administration",approximately 62.5 μmoles/kg
same,Body weight change after a single intravenous injection of the MTD,[48]; Tlr7−/− or Myd88−/− mice,did not result in body weight changes
same,Body weight change after a single intravenous injection of the MTD,[48]; WT mice,did not result in body weight changes
same,IFN-γ secretion in human PBMC,[49],does not stimulate IFN-γ secretion
same,concentration at 1 h,[50],0.139 ± 0.0612 ng/mL
